In ChEMBL document CHEMBL5393459, “O-linked thiadiazolyl compounds as dna polymerase theta inhibitors” (2022):
pIC50: −log10 of the molar value.

Target: DNA polymerase theta (Homo sapiens, UniProt O75417)
Test: Inhibition of human DNA polymerase theta (1 to 899 residues) ATPase activity using dT50 single strand DNA as substrate by NADH oxidation-coupled enzymatic assay

Chain of DNA polymerase theta (O75417 whole entry, the tested form may be a part): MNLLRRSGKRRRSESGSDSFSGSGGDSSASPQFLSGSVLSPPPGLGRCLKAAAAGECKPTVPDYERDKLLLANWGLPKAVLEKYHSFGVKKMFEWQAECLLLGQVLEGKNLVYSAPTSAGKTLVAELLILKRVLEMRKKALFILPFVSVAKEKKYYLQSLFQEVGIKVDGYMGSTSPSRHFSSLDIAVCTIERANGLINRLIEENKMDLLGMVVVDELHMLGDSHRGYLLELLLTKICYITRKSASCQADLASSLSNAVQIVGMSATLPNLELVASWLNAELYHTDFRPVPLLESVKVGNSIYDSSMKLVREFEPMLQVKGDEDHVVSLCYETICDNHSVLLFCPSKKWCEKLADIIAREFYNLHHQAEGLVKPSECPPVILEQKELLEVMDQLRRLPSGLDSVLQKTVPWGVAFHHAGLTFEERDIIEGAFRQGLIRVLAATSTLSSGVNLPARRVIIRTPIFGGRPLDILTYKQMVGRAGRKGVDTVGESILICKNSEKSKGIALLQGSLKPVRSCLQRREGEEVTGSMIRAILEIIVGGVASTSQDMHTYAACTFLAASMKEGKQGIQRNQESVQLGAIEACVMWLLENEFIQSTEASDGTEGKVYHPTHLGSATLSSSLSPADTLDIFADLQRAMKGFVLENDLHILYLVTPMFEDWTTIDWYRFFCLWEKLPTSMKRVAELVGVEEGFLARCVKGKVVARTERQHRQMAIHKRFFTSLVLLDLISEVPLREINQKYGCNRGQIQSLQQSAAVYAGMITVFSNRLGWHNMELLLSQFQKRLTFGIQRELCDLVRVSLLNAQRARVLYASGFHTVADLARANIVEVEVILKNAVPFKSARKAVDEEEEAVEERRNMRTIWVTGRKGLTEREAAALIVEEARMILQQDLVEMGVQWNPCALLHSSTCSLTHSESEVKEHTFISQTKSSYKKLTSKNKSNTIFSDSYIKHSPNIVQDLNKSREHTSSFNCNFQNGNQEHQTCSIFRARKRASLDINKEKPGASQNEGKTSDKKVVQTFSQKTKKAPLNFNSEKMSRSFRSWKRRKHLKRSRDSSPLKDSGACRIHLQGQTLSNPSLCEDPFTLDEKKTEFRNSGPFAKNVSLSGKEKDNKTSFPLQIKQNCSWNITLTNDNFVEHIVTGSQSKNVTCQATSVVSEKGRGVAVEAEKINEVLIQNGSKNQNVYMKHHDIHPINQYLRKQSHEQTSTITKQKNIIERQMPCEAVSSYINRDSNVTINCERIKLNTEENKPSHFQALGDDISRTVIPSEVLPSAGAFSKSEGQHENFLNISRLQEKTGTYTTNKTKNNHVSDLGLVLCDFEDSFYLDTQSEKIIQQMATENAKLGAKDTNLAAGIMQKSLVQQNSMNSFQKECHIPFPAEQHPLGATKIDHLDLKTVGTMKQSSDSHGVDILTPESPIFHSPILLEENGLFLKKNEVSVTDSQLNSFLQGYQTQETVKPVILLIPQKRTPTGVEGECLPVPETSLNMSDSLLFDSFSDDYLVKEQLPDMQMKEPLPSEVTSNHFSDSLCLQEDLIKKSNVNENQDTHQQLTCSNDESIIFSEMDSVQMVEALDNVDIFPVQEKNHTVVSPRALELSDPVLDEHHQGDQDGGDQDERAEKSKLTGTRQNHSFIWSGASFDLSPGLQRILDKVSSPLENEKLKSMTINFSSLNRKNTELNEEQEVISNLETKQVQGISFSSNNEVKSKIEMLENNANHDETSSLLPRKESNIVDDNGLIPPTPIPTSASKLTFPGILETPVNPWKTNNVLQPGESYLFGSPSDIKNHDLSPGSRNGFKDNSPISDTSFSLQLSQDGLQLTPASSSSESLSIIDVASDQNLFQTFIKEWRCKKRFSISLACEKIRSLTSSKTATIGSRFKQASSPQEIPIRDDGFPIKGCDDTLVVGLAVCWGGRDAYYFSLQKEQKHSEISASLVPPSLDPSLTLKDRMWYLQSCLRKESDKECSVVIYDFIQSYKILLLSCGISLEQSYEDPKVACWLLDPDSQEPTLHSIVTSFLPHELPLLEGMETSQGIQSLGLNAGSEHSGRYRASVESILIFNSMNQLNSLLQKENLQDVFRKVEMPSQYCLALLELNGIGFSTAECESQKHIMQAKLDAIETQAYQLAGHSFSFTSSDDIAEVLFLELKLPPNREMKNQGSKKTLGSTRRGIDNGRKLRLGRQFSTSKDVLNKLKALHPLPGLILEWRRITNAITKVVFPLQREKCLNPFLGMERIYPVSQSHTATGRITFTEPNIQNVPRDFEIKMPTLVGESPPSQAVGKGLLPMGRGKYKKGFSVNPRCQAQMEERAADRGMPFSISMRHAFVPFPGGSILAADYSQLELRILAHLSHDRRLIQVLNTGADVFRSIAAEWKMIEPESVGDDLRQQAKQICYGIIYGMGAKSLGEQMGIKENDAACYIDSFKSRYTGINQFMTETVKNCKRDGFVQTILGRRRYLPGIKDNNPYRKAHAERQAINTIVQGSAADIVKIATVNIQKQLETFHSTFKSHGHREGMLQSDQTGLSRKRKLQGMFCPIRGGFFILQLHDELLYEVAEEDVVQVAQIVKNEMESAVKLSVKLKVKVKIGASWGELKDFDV

- pIC50: < 5.00
SMILES: COc1nnc(NC(=O)c2cnc(C)cc2-c2c(OC)ccc3scnc23)s1
